pKi: −log10 of the molar value. Values belong to the molecule of their own block, whether it stands above or below them.
Tests used:
Aβ1-42 fibrils = target: T1, Aβ1-42 fibrils (Homo sapiens, UniProt P05067); test: [125I]SIL23 competitive binding assay, Aβ1-42 fibrils; details: [125I]SIL23 competition, 95% confidence intervals in parentheses
T1 construct: Synthetic Aβ1-42 peptide (1 mg) (Bachem, Torrance, Calif.); purchased Bachem, Torrance, Calif; host or cells: synthetic peptide

tau fibrils = target: T2, tau fibrils (Homo sapiens, UniProt P10636); test: [125I]SIL23 competitive binding assay, tau fibrils; details: [125I]SIL23 competition, 95% confidence intervals in parentheses
T2 construct: made in house; host or cells: BL21(DE3)RIL E. coli
T2 sequence (P10636 560-692): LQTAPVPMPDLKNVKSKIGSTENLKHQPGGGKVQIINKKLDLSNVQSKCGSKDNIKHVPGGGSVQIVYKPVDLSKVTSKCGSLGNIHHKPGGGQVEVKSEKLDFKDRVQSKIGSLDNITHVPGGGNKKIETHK

α-synuclein fibrils = α-synuclein fibrils (Homo sapiens, UniProt P37840); test: ThT fluorescence saturation binding to α-synuclein fibrils; set-up: made in house; host or cells: BL21(DE3)RIL E. coli
[1] = Ex vivo biodistribution in Sprague-Dawley rats; details: for brain uptake: male SD rats (n=4);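 for all read-outs here: four rats in each time-point group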
[2] = MicroPET study in the brain of a nonhuman primate; format: in vivo, cynomolgus monkey; details: monkey 5.8 kg, 8.68 mCi/6 mL injected
Description: The brain of a cynologmus monkey was scanned using a microPET scanner. The left panel is the MRI image. The middle panel is the co-registered the MRI and PET image. The right panel is the PET image. […] FIG. 74 presents a plot of the radiation in portions of the monkey brain as a function of time. […] It also has favorable clearance pharmacokinetics from the brain.

T1 sequence (P05067 672-713 limits assumed): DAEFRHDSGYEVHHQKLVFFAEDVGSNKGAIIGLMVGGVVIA

pKi (Aβ1-42 fibrils): 7.15 | pKi (tau fibrils): 7.28
Structure (SMILES): O=[N+]([O-])c1ccc2c(c1)Sc1ccccc1N2 [SIL3B, 3-nitro-10H-phenothiazine]

pKi (Aβ1-42 fibrils): 6.99 | pKi (tau fibrils): 6.76
Structure (SMILES): O=[N+]([O-])c1ccc2c(c1)Sc1cc(Br)ccc1N2 [SIL22, 3-bromo-7-nitro-10H-phenothiazine]

Biodistribution ([1]; blood, 5 min, male Sprague-Dawley rats): 0.506 ± 0.040 I.D. %/gram | Biodistribution ([1]; blood, 30 min, male Sprague-Dawley rats): 0.369 ± 0.031 I.D. %/gram | Biodistribution ([1]; blood, 60 min, male Sprague-Dawley rats): 0.300 ± 0.015 I.D. %/gram | brain uptake ([1]; 5 min post i.v. injection): 0.953±0.115 % I.D./g | brain uptake ([1]; 30 min post i.v. injection): 0.287±0.046 % I.D./g | brain uptake ([1]; 60 min post i.v. injection): 0.158±0.014 % I.D./g | Biodistribution ([1]; fat, 5 min, male Sprague-Dawley rats): 0.155 ± 0.023 I.D. %/gram | Biodistribution ([1]; fat, 30 min, male Sprague-Dawley rats): 0.241 ± 0.042 I.D. %/gram | Biodistribution ([1]; fat, 60 min, male Sprague-Dawley rats): 0.293 ± 0.076 I.D. %/gram | Biodistribution ([1]; heart, 5 min, male Sprague-Dawley rats): 0.758 ± 0.052 I.D. %/gram | Biodistribution ([1]; heart, 30 min, male Sprague-Dawley rats): 0.377 ± 0.046 I.D. %/gram | Biodistribution ([1]; heart, 60 min, male Sprague-Dawley rats): 0.245 ± 0.010 I.D. %/gram | Biodistribution ([1]; kidney, 30 min, male Sprague-Dawley rats): 0.807 ± 0.086 I.D. %/gram | Biodistribution ([1]; kidney, 60 min, male Sprague-Dawley rats): 0.559 ± 0.053 I.D. %/gram | Biodistribution ([1]; liver, 5 min, male Sprague-Dawley rats): 2.198±0.111 I.D. %/gram | Biodistribution ([1]; liver, 30 min, male Sprague-Dawley rats): 1.349 ± 0.116 I.D. %/gram | Biodistribution ([1]; liver, 60 min, male Sprague-Dawley rats): 1.116±0.024 I.D. %/gram | decrease of liver uptake ([1]; liver, from 5 min to 60 min): about 50% | Biodistribution ([1]; lung, 5 min, male Sprague-Dawley rats): 1.149 ± 0.058 I.D. %/gram | Biodistribution ([1]; lung, 30 min, male Sprague-Dawley rats): 0.740 ± 0.038 I.D. %/gram | Biodistribution ([1]; lung, 60 min, male Sprague-Dawley rats): 0.485 ± 0.036 I.D. %/gram | ability to cross the blood-brain-barrier (BBB) ([1]; male Sprague-Dawley rats, i.v.): able to cross BBB | Biodistribution ([1]; muscle, 5 min, male Sprague-Dawley rats): 0.271 ± 0.005 I.D. %/gram | Biodistribution ([1]; muscle, 30 min, male Sprague-Dawley rats): 0.325 ± 0.030 I.D. %/gram | Biodistribution ([1]; muscle, 60 min, male Sprague-Dawley rats): 0.199 ± 0.016 I.D. %/gram | Biodistribution ([1]; pancreas, 5 min, male Sprague-Dawley rats): 1.007 ± 0.262 I.D. %/gram | Biodistribution ([1]; pancreas, 30 min, male Sprague-Dawley rats): 0.506 ± 0.066 I.D. %/gram | Biodistribution ([1]; pancreas, 60 min, male Sprague-Dawley rats): 0.522 ± 0.036 I.D. %/gram | Biodistribution ([1]; spleen, 5 min, male Sprague-Dawley rats): 0.659 ± 0.049 I.D. %/gram | Biodistribution ([1]; spleen, 30 min, male Sprague-Dawley rats): 0.400 ± 0.052 I.D. %/gram | Biodistribution ([1]; spleen, 60 min, male Sprague-Dawley rats): 0.386 ± 0.027 I.D. %/gram | brain uptake (microPET) [2]: high uptake in the brain | washout kinetics from the brain (microPET) [2]: good washout kinetics
Structure (SMILES): COc1ccc2c(c1)Sc1cc([N+](=O)[O-])ccc1N2 [[^11C]SIL5]

The next lines start with the molecule.

Structure (SMILES): Cc1ccc2c(c1)sc(-c1ccc(N(C)C)cc1)[n+]2C [ThT, Thioflavin T]
Bmax (α-synuclein fibrils): 5672 afu

Structure (SMILES): COc1ccc2c(c1)Sc1cc(N)ccc1N2C [Compound 13a, 7-methoxy-10-methyl-10H-phenothiazin-3-amine]
melting point: 141.6 to 142.9 °C

— patent US20130315825A1, “TRICYCLIC HETEROAROMATIC COMPOUNDS AS ALPHA-SYNUCLEIN LIGANDS” (Washington University, priority 2012, published 2013)
